{"source": "patent EP0317105A2", "about": "“Phenylalanine derivative and its uses” (AJINOMOTO CO., INC., priority 1987, dated 1989)", "key": {"male ICR mice": {"tested_on": "male ICR mice", "test": "Toxicity test: oral administration to mice, survival and LD50", "assay_type": "in vivo", "settings": "for Number of living mice: among 10 head, observation after two weeks; for LD₅₀ values: oral, mice, in words, compared with the known absorption accelerator", "experimental": "A known absorption accelerator, N-(α-fluoro-4-methylcinnamoyl)-L-phenylalanine, and the two absorption accelerators of this invention were each suspended in 0.5% solution of CMC sodium salt at different concentrations, each suspension was orally administered to male ICR mice of 4-week age ( each group consisting of 10 head ), and LD₅₀ values were measured based on the observations after two weeks. The result is summarized in Table 2, in which the figures show the number of living mice when 1.0 g/Kg and 3.0 g/Kg of the compounds were administered."}, "[1]": {"test": "Activity test using dogs: oral gelatin capsules of insulin plus absorption accelerator, serum glucose measured", "assay_type": "in vivo, male beagles", "settings": "50 U/Kg insulin + 25 mg/Kg sodium salt of absorption accelerator, average of two dogs, compared with N-(α-fluoro-4-methylcinnamoyl)-L-phenylalanine", "experimental": "An absorption acceleration test was conducted using dogs to compare the absorption accelerators of this invention with a known absorption accelerator, N-(α-fluoro-4-methylcinnamoyl)-L-phenylalanine.\nGelatin capsules containing 50 U/Kg insulin and 25 mg/Kg sodium salt of absorption accelerator were orally administered to male beagles of 6- to 8-month age fasted for 18 hours. In this test, the same two dogs were used for each of test samples.\nA blood sample was taken from each dog at definite intervals from the peripheral vein in a paw, the amount of glucose in the serum was measured, and the average of two head was calculated. The result is sumarized in the figure."}, "[2]": {"test": "Activity test using mice: oral insulin co-administered with absorption accelerator, blood glucose and blood insulin measured", "assay_type": "in vivo, female ICR-CDI mice", "settings": "insulin 0.5 U/10 g + absorption accelerator 3 mg/10 g, vs control group", "experimental": "Each of the absorption accelerators prepared above was suspended in 0.5% CMC/0.05M Tris-HCl buffer ( pH 7.8 ), insulin was admixed to this suspension, and the resulting mixture was orally administered to a group of female ICR-CDI mice ( five head of 5- to 7-week age ) fasted for 18 hours ( insulin: 0.5 U/10 g, absorption accelerator: 3 mg/10 g ). The rate of reduction in blood glucose (%) and the factor of increase in the insuline level in the blood, in comparison with the data of the control group, were measured at definite intervals."}}}
{"molecule": "Cc1ccc(C=C(F)C(=O)N[C@@H](Cc2ccccc2)C(=O)O)cc1", "note": "[N-(α-fluoro-4-methylcinnamoyl)-L-phenylalanine, reference compound]", "values": [{"measurement": "Number of living mice", "setting": "male ICR mice; 1.0 g/Kg oral", "result": 10}, {"measurement": "Number of living mice", "setting": "male ICR mice; 3.0 g/Kg oral", "result": 6}]}
{"molecule": "Cc1ccc(C(Cl)=CC(=O)N[C@H](Cc2ccccc2)C(=O)O)cc1", "note": "[N-(β-chloro-4-methylcinnamoyl)-D-phenylalanine]", "values": [{"measurement": "effect of reducing the glucose level in the serum", "setting": "[1]", "result": "far higher effect of reducing the glucose level in the serum over longer periods"}, {"measurement": "Number of living mice", "setting": "male ICR mice; 1.0 g/Kg oral", "result": 10}, {"measurement": "Number of living mice", "setting": "male ICR mice; 3.0 g/Kg oral", "result": 6}, {"measurement": "LD₅₀ values", "setting": "male ICR mice", "result": "equal to, or higher than, that of the known absorption accelerator"}, {"measurement": "Factor of increase in blood-insulin level", "setting": "[2]; 15 minutes", "result": "2) 2.1"}, {"measurement": "Rate of reduction in blood glucose level", "setting": "[2]; 15 minutes", "result": "1) 35.7%"}, {"measurement": "Factor of increase in blood-insulin level", "setting": "[2]; 30 minutes", "result": "2) 3.3"}, {"measurement": "Rate of reduction in blood glucose level", "setting": "[2]; 30 minutes", "result": "1) 47.8%"}, {"measurement": "Rate of reduction in blood glucose level", "setting": "[2]; 60 minutes", "result": "1) 42.8%"}]}
{"molecule": "Cc1ccc(C(Cl)=CC(=O)N[C@@H](Cc2ccccc2)C(=O)O)cc1", "note": "[N-(β-chloro-4-methylcinnamoyl)-L-phenylalanine]", "values": [{"measurement": "effect of reducing the glucose level in the serum", "setting": "[1]", "result": "far higher effect of reducing the glucose level in the serum over longer periods"}, {"measurement": "Number of living mice", "setting": "male ICR mice; 1.0 g/Kg oral", "result": 10}, {"measurement": "Number of living mice", "setting": "male ICR mice; 3.0 g/Kg oral", "result": 10}, {"measurement": "LD₅₀ values", "setting": "male ICR mice", "result": "equal to, or higher than, that of the known absorption accelerator"}, {"measurement": "Factor of increase in blood-insulin level", "setting": "[2]; 15 minutes", "result": "2) 10.5"}, {"measurement": "Rate of reduction in blood glucose level", "setting": "[2]; 15 minutes", "result": "1) 42.1%"}, {"measurement": "Factor of increase in blood-insulin level", "setting": "[2]; 30 minutes", "result": "2) 2.0"}, {"measurement": "Rate of reduction in blood glucose level", "setting": "[2]; 30 minutes", "result": "1) 21.6%"}, {"measurement": "Rate of reduction in blood glucose level", "setting": "[2]; 60 minutes", "result": "1) 12.2%"}, {"measurement": "Factor of increase in blood-insulin level", "setting": "[2]; 60 minutes, \"-\" = no increase in blood insulin level was observed", "result": "2) 2.1"}]}
